Source: PubChem BioAssay (NCI)
Values joined by “and” are separate entries in the source; they are usually repeats but may differ in a detail not shown here. Identical values can stand only once.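 These data come from cells grown in 96-well plates and exposed to compound for 48 hours at five concentrations. GI50 marks 50% less growth. The concentration for full growth arrest is given as TGI.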

What was measured:
Assay in all cases: inhibition of tumour cell growth, NCI panel, 48 h
CAKI-1 renal = test system: CAKI-1 renal
CCRF-CEM leukemia = test system: CCRF-CEM leukemia
HOP-92 NSCLC = test system: HOP-92 NSCLC
HCT-15 colon = test system: HCT-15 colon
M14 melanoma = test system: M14 melanoma
UACC-257 melanoma = test system: UACC-257 melanoma
SN12C renal = test system: SN12C renal
SK-MEL-2 melanoma = test system: SK-MEL-2 melanoma
SW-620 colon = test system: SW-620 colon
MOLT-4 leukemia = test system: MOLT-4 leukemia

Structure (SMILES) | GI50 (CAKI-1 renal) | TGI (CAKI-1 renal) | GI50 (CCRF-CEM leukemia) | TGI (CCRF-CEM leukemia) | GI50 (HOP-92 NSCLC) [µM] | TGI (HOP-92 NSCLC) | GI50 (HCT-15 colon) | TGI (HCT-15 colon) | GI50 (M14 melanoma) [µM] | TGI (M14 melanoma) | GI50 (UACC-257 melanoma) [µM] | TGI (UACC-257 melanoma) | GI50 (SN12C renal) | TGI (SN12C renal) | GI50 (SK-MEL-2 melanoma) | TGI (SK-MEL-2 melanoma) | GI50 (SW-620 colon) | TGI (SW-620 colon) | TGI (MOLT-4 leukemia) | GI50 (MOLT-4 leukemia)
COc1cccc2c1C(=O)c1c(O)c3c(c(O)c1C2=O)C[C@@](O)(C(=O)CO)C[C@@H]3OC1CC(N)CC(C)O1 (stereo partly drawn) | 0.00936 µM and 0.00812 µM and 0.0263 µM | 0.119 µM and 0.377 µM | < 0.0125 µM | 0.374 µM and 0.159 µM | 0.0638 | 0.275 µM and 0.353 µM | 0.183 µM and 0.125 µM | 3.57 µM and 2.53 µM | 0.036 | 0.278 µM and 0.218 µM | 0.103 | 0.33 µM and 0.195 µM | 0.0232 µM | 1.43 µM and 1.07 µM | 0.125 µM and 0.0769 µM | 0.315 µM and 0.22 µM | 0.0117 µM and 0.0389 µM | 0.434 µM and 1.36 µM |  | 
CC1(C)C(C#N)C1C1=C(N2CCOCC2)[C@]2(C)C(OC(=O)c3ccccc3)CC[C@@H]2C1 (stereo partly drawn) |  | > 100 µM |  | > 100 µM |  | > 100 µM |  | > 100 µM |  | > 100 µM |  | > 100 µM |  | > 100 µM |  |  |  | > 100 µM | > 100 µM | 
COC(=O)C(C(=O)c1ccccc1)C(C(=O)C(=O)Nc1ccc(OC)cc1OC)C(=O)C(=O)c1ccc(C)cc1 (stereo not drawn) |  | > 100 µM |  | > 100 µM |  |  |  | > 100 µM |  | > 100 µM |  | > 100 µM |  | > 100 µM |  | > 100 µM |  | > 100 µM | > 100 µM | 
CC(C)CCC1CC2C(=O)N(c3ccccc3)C(=O)C2c2[nH]c3ccccc3c21 (stereo not drawn) |  |  |  | 16.8 µM |  |  |  | 13.4 µM |  | 4.04 µM |  |  |  | 15.4 µM |  |  |  | 13.1 µM | 17.3 µM | 
CC1=C(C(=O)Nc2ccc(F)c(Cl)c2)C(c2ccccc2O)NC(=S)N1 (stereo not drawn) | 45.8 µM | > 50 µM |  |  | > 50 | > 50 µM | 45.1 µM | > 50 µM | > 50 | > 50 µM | 19.8 | > 50 µM | > 50 µM | > 50 µM | 23.6 µM | > 50 µM | > 50 µM | > 50 µM | > 50 µM | 17.8 µM
O=[N+]([O-])c1cccc(C2=NN(c3ccccc3)C[N+](c3ccc(Br)cc3)=N2)c1 |  | > 100 µM |  |  |  | > 100 µM |  | > 100 µM |  | > 100 µM |  | > 100 µM |  | > 100 µM |  | > 100 µM |  | > 100 µM | > 100 µM | 
O=C(Nc1ccn(CCO)c(=O)n1)c1ccccc1 |  | > 100 µM |  | > 100 µM |  | > 100 µM |  | > 100 µM |  | > 100 µM |  | > 100 µM |  | > 100 µM |  | > 100 µM |  | > 100 µM |  | 
C(=NCCN1CCOCC1)=NC1CCCCC1 |  | > 100 µM |  |  |  | > 100 µM |  | > 100 µM |  | > 100 µM |  | > 100 µM |  | > 100 µM |  | > 100 µM |  | > 100 µM | > 100 µM | 
Cc1c2n(c(=O)[nH]c1=O)C1OC(CO)C(O2)C1O (stereo not drawn) |  | > 100 µM |  | > 100 µM |  | > 100 µM |  | > 100 µM |  |  |  | > 100 µM |  | > 100 µM |  | > 100 µM |  | > 100 µM | > 100 µM | 
CSC1=Nc2c(c(C)c(C)n2COC(CO)CO)C2=NC(=O)C(C)N12 (stereo not drawn) | > 100 µM | > 100 µM | > 100 µM | > 100 µM | > 100 | > 100 µM | > 100 µM | > 100 µM |  |  | > 100 | > 100 µM | > 100 µM | > 100 µM | > 100 µM | > 100 µM | > 100 µM | > 100 µM | > 100 µM | > 100 µM
NC(=O)/C=C/C(=O)c1c(Cl)cccc1Cl | 0.971 µM | 2.5 µM |  |  | 0.574 | 1.94 µM |  | 2.3 µM | 1.45 | 2.76 µM | 1.38 | 2.68 µM | 1.4 µM | 2.69 µM | 1.83 µM | 4.01 µM | 0.511 µM | 1.04 µM | 5.46 µM | 1.18 µM
Clc1ccc2c(c1)[nH]c1c2nc2ccccn21 |  |  | 22.8 µM and 7.18 µM | 71.3 µM and 48.9 µM |  |  | 40.8 µM and 20 µM | > 100 µM and 38.5 µM |  | 64.5 µM and 36.9 µM |  | 89.4 µM and 32.3 µM | 36.1 µM and 15.4 µM | > 100 µM and 32.2 µM |  | > 100 µM and 17.8 µM |  | 38.3 µM and 45.3 µM | 76.8 µM and 42.7 µM | 28.4 µM and 5.44 µM
CCC(=O)CC(=O)CCC(=O)Nc1cc(C)ccc1C |  |  |  | > 100 µM |  | > 100 µM |  | > 100 µM |  | > 100 µM |  |  |  | > 100 µM |  | > 100 µM |  | > 100 µM | > 100 µM | 
Cc1cc(Nc2ccc(NC(=O)c3ccc(Nc4ccnc5ccccc45)cc3)cc2)nc(N)n1 | > 100 µM | > 100 µM |  |  | 2.13 | 6.59 µM | 6.16 µM | > 100 µM | 7.62 | > 100 µM | 21.8 | 87.7 µM | 2.13 µM | 5.02 µM | 5.56 µM | 94.7 µM | 1.37 µM | > 100 µM |  | 
COC(=O)COc1ccccc1/C=C1\N=C(c2ccccc2)N(c2cc(C(F)(F)F)ccc2Cl)C1=O | 79 µM | > 100 µM | 27.6 µM | 74.4 µM | 33.2 | > 100 µM | > 100 µM | > 100 µM | 37.9 | > 100 µM |  |  | 60.5 µM | > 100 µM | 28.5 µM | > 100 µM | 38.8 µM | > 100 µM | 62.3 µM | 23 µM
O=CCC1CCCCC1 |  | > 100 µM |  |  |  | > 100 µM |  | > 100 µM |  | > 100 µM |  | > 100 µM |  | > 100 µM |  | > 100 µM |  | > 100 µM | > 100 µM | 
CN1CC(=O)N2Cc3ccccc3-n3cccc3C2C1 (stereo not drawn) |  | > 100 µM |  |  |  |  |  | > 100 µM |  | > 100 µM |  | > 100 µM |  | > 100 µM |  | > 100 µM |  | > 100 µM |  | 
Nc1nc(Cl)cc(NCCCCCCCCNc2cc(Cl)nc(N)n2)n1 |  | 44.7 µM |  | > 100 µM |  | 85.4 µM |  | > 100 µM |  | > 100 µM |  | > 100 µM |  | > 100 µM |  | > 100 µM |  | > 100 µM |  | 
O=C(O)COc1ccc2c(=O)c3sc4c(=O)c5ccccc5c(=O)c4c3c(=O)c2c1 |  |  | 23.6 µM | 62.9 µM | 18.9 | 43.2 µM | 4.41 µM | 18.2 µM | 2.69 | 7.53 µM | 16.2 | 34.7 µM | 12.3 µM | 29.8 µM | 19.8 µM | 49.3 µM | 11.4 µM | 28.6 µM | 52.6 µM | 21.5 µM
